{"source": "patent US9867795B2", "about": "“Nitrated lipids and methods of making and using thereof” (The UAB Research Foundation, priority 2004, dated 2018)", "key": {"hPPARγ": {"biological_target": "T1, hPPARγ (Homo sapiens, UniProt P37231)", "T1 construct": "For assessing full-length PPAR receptors, CV-1 cells were transiently co-transfected; expressed in transfected cells; host or cells: CV-1 cells", "T1 sequence (P37231 1-505)": "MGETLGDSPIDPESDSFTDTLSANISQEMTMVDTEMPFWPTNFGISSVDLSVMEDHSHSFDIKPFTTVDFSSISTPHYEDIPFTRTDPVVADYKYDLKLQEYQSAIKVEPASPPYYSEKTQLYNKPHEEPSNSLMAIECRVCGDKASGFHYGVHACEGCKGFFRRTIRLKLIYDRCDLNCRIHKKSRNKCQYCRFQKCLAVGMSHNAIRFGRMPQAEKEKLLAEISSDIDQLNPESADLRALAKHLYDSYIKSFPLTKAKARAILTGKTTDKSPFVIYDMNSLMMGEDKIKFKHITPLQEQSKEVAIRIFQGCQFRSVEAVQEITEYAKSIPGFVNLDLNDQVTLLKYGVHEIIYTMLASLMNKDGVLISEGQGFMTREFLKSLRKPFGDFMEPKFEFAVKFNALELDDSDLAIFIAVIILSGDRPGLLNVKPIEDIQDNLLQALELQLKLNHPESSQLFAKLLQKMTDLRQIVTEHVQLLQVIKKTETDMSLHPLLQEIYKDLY", "assay": "CV-1 PPRE×3 TK-Luciferase transient transfection assay", "format": "cell-based", "conditions": "for PPARγ-dependent reporter gene expression by LNO2 decay products, oxidized linoleic acid derivatives and •NO donors: PPARγ-transfected CV-1 cells, FIG. 8C; for activation of PPARγ reporter gene expression compared with vehicle control: 1 and 3 μM, CV-1 cells, PPRE reporter", "text": "Cell Transient Transfection Assay. […] Then, cells were transiently co-transfected with a plasmid containing the luciferase gene under regulation by four Gal4 DNA binding elements (UASG×4 TK-Luciferase, a gift from Dr. Ronald M. Evans), in concert with plasmids containing the ligand binding domain for the different nuclear receptors fused to the Gal4 DNA binding domain. For assessing full-length PPAR receptors, CV-1 cells were transiently co-transfected with a plasmid containing the luciferase gene under the control of three tandem PPAR response elements (PPRE) (PPRE×3 TK-Luciferase) and hPPARγ, hPPARα or hPPARδ expression plasmids, respectively. In all cases, fluorescence protein (GFP) expression plasmid was co-transfected as the control for the transfection efficiency. Twenty-four hours after the transfection, cells were cultured for another 24 hours in Optium-MEM (Invitrogen, Carlsbad, Calif.). Then, cells were treated with different compounds as indicated in figures for 24 hours in Optium-MEM. Reporter luciferase assay kits from Promega (Madison, Wis.) were used to measure the luciferase activity according to the manufacturer's instructions with a luminometer (Victor II, Perkin-Elmer). Luciferase activity was normalized by GFP units. Each condition was performed at least in triplicates in each experiment.\nPPAR transient transfection assay. […] Twelve hours before transfection, the media was removed and antibiotic-free media was applied. Cells were transiently co-transfected with a plasmid containing the luciferase gene under the control of three tandem PPAR response elements (PPRE) (PPRE×3 TK-Luciferase) and PPARγ, PPARα or PPARδ expression plasmids, respectively. In all cases, fluorescence protein (GFP) expression plasmid was co-transfected as the control for transfection efficiency. Twenty-four hours after transfection, cells the returned to OptiMEM (Invitrogen, Carlsbad, Calif.) for 24 hr and then treated as indicated for another 24 hr. Reporter luciferase assay kits from Promega (Madison, Wis.) were used to measure the luciferase activity according to the manufacturer's instructions with a luminometer (Victor II, Perkin-Elmer). Luciferase activity was normalized by GFP units. Each condition was performed in triplicate in each experiment (n>3)."}, "Human PPARγ1 (GST-PPARγ) [1]": {"biological_target": "T2, Human PPARγ1 (GST-PPARγ) (Homo sapiens, UniProt P37231)", "T2 sequence (P37231 1-477 isoform P37231-2)": "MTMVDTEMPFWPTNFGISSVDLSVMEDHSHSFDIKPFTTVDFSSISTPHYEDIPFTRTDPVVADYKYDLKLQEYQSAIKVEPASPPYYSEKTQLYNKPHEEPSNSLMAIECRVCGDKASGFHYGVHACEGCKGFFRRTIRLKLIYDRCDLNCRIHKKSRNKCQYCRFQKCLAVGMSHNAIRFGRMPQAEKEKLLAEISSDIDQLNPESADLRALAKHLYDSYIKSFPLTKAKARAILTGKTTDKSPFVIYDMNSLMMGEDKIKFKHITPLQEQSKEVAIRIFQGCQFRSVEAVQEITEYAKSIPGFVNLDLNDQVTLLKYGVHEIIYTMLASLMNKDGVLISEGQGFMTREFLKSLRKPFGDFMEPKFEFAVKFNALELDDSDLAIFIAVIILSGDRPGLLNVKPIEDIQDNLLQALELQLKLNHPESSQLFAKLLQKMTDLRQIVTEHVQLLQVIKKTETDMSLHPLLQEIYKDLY", "assay": "PPARγ competition binding assay ([^3H]Rosiglitazone displacement)", "conditions": "calculated / estimated", "procedure": "PPARγ Competition Binding Assay. Human PPARγ1 cDNA was inserted into pGEX from Amersham Biosciences Corp (Piscataway, N.J.) containing the gene encoding glutathione S-transferase (GST). GST-PPARγ protein induction and receptor binding was assessed as previously described (17)."}, "NF-kB pathways": {"tested_on": "NF-kB pathways", "assay": "NF-kB pathway activity (NFkB-response element luciferase reporter, IkB degradation)", "format": "cell-based", "conditions": "reporter in response to TNFa; IkB degradation in response to E. coli LPS"}, "Human PPARγ1 (GST-PPARγ) [2]": {"biological_target": "T2, Human PPARγ1 (GST-PPARγ)", "conditions": "read-out: previously reported Ki for PPARγ; cited from earlier work"}, "[3]": {"tested_on": "human vascular endothelial cells and macrophages", "assay": "Whole Human Genome Oligo Array gene expression", "format": "cell-based", "conditions": "24 hours; LNO2O 2.5 mM, linoleic acid 2.5 μM", "procedure": "The nitroalkenes of the present invention also display regulatory actions towards the expression of genes related to inflammatory responses, cell growth, cell differentiation, cell signaling, cell death (apoptosis) and metabolism. For example, nitrolinoleate regulates gene expression in human vascular endothelial cells and macrophages. Cells were stimulated with vehicle and linoleic acid (2.5 μM, the latter two treatments as controls) and LNO2O ([…]) for 24 hours. The total RNA was purified with a Qiagen Kit and analyzed with a Whole Human Genome Oligo Array (G4112A, 41K Genes, Agilent). […] In contrast, the native (precursor) fatty acid, linoleic acid, only regulates 14 genes, with an up-regulation of 5 genes and the down-regulation of 9 genes."}}, "note": "Like-named read-outs stand apart in the source and are kept apart here."}
{"compound": "CCCCC/C=C\\C=C\\C(=O)CCCCCCCC(=O)O", "note": "[9-oxoODE]", "values": [{"measurement": "PPARγ-dependent reporter gene expression by LNO2 decay products, oxidized linoleic acid derivatives and •NO donors", "setting": "hPPARγ", "value": "modest PPARγ activation"}]}
{"compound": "CCCCCC(=O)/C=C/C=C\\CCCCCCCC(=O)O", "note": "[13-oxoODE]", "values": [{"measurement": "PPARγ-dependent reporter gene expression by LNO2 decay products, oxidized linoleic acid derivatives and •NO donors", "setting": "hPPARγ", "value": "no effect"}]}
{"compound": "CCCCCCC=CC=CCCCCCCCC(=O)O", "note": "[CLA1, Δ^9,11-conjugated linoleic acid]", "values": [{"measurement": "activation of PPARγ reporter gene expression compared with vehicle control", "setting": "hPPARγ", "value": "no significant activation"}]}
{"compound": "CCCCCC=CC=CCCCCCCCCC(=O)O", "note": "[CLA2, Δ^10,12-conjugated linoleic acid]", "values": [{"measurement": "activation of PPARγ reporter gene expression compared with vehicle control", "setting": "hPPARγ", "value": "no significant activation"}]}
{"compound": "CCCCCCCC/C=C\\CCCCCCCCOC[C@@H](O)COP(=O)(O)O", "note": "[LPA-18:1, 1-O-9-(Z)-octadecenyl-2-hydroxy-sn-glycero-3-phosphate]", "values": [{"measurement": "activation of PPARγ reporter gene expression compared with vehicle control", "setting": "hPPARγ", "value": "no significant activation"}]}
{"compound": "CCCCCCCCCCCCCCCC(=O)OC[C@H](COP(=O)([O-])OCC[N+](C)(C)C)OC(=O)CCCCCCCC(=O)O", "note": "[azPC ester, 1-Palmitoy-2-Azelaoyl-sn-Glycero-3-Phosphocholine]", "values": [{"measurement": "activation of PPARγ reporter gene expression compared with vehicle control", "setting": "hPPARγ", "value": "no significant activation"}]}
{"compound": "CCCCCCCCCCCCCCCCOC[C@H](COP(=O)([O-])OCC[N+](C)(C)C)OC(=O)CCCCCCCC(=O)O", "note": "[azPC, 1-O-hexadecyl-2-azelaoyl-sn-glycero-3-phosphocholine]", "values": [{"measurement": "activation of PPARγ reporter gene expression compared with vehicle control", "setting": "hPPARγ", "value": "no significant activation"}]}
{"compound": "CCCCC/C=C\\C/C=C\\CCCCCCCC(=O)O", "note": "[linoleic acid, reference compound]", "values": [{"measurement": "Ki", "setting": "Human PPARγ1 (GST-PPARγ) [1]", "value": "> 1000", "unit": "nM"}, {"measurement": "activity of NF-kB pathways", "setting": "NF-kB pathways", "value": "not"}, {"measurement": "activation of PPARγ reporter gene expression compared with vehicle control", "setting": "hPPARγ", "value": "no significant activation"}, {"measurement": "Ki", "setting": "Human PPARγ1 (GST-PPARγ) [2]", "value": "1700 to 17000", "unit": "nM"}, {"measurement": "expression of adipocyte markers (PPARγ2 and aP2)", "setting": "3T3-L1 preadipocytes; immunoblot of cell lysate", "value": "not detected"}, {"measurement": "number of genes down-regulated", "setting": "[3]", "value": 9, "unit": "genes"}, {"measurement": "number of genes regulated", "setting": "[3]", "value": 14, "unit": "genes"}, {"measurement": "number of genes up-regulated", "setting": "[3]", "value": 5, "unit": "genes"}]}
{"compound": "CCCCCCCCC=CCCCCCCCC(=O)O", "note": "[oleic acid, 9-Octadecenoic acid, reference compound]", "values": [{"measurement": "adipogenesis / adipocyte differentiation (morphology, oil red O)", "setting": "3T3-L1 preadipocytes; two weeks, Rosiglitazone 3 μM, linoleic acid 10 μM, oleic acid 3 μM", "value": "did not induce adipogenesis"}]}
